Test results published in patent US4668799A, “Anti-hepatitis and anti-cirrhotic 1,3-dithiol-2-ylidene derivatives, and pharmaceutical compositions therefor” (Banyu Pharmaceutical Co., Ltd., priority 1985, dated 1987).
Like-named read-outs stand apart in the source and are kept apart here.

What was measured:
[1] = test system: liver (acute liver injury induced by carbon tetrachloride); test: Protective Effect on Acute Liver Injury Induced by Carbon Tetrachloride; type: in vivo, mice (ddY); conditions: mice; for inhibition in vivo at 50 mg/kg: Mus musculus, po, 50 mg/kg p.o. 6 h before CCl4, CCl4 alone = 0, normal = 100; for Liver Damage Index: 50 mg/kg p.o. 6 h before CCl4 0.05 ml/kg p.o., visual score 0 normal, 2 slightly, 4 distinctly, 6 remarkably injured, CCl4 alone 6.0
Procedure: A test compound was dissolved or suspended in olive oil and administered orally at a dose of 50 mg/kg to mice (ddY, mice, .male., 23±2 g, n=5). After 6 hours, carbon tetrachloride (0.05 ml/kg) was administered orally, 24 Hours after the administration of carbon tetrachloride, BSP (sodium sulfobromophthalene; 75 mg/kg) was administered intravenously. Thirty minutes later, the cardiac blood was collected, and GPT (glutamic-pyruvic transaminase) activity and the retention rate of BSP in the plasma were measured. Further, the liver injury immediately after the collection of the blood was visually observed and evaluated by the following score for liver damage index.

[2] = test system: mice; test: Acute Toxicity Test; type: in vivo; conditions: oral, one week after administration
Procedure: (§1) A test compound was dissolved or suspended in olive oil and administered orally to mice (ddY mice, .male., 23±2 g, n=5). The acute toxicity value (LD50) was determined from the mortality one week after the administration.

[3] = Acute Toxicity Test; type: in vivo; conditions: mouse, in vivo; mice, oral, mortality one week after administration
Procedure: as §1

[4] = test system: liver damages; conditions: in vivo; cited from earlier work
[5] = test system: liver protein synthesis; test: Effect on Protein Synthesis in Liver; type: in vivo, rats (Wister strain); conditions: rats, 100 mg/kg p.o. for 3 days
Procedure: Compound 6 was dissolved in olive oil and orally administered successively for 3 days at a dose of 100 mg/kg to rats (Wister strain, .male., 180±10 g, 6 week-old, n=5). 24 Hours after the administration of the test compound was completed, the animals were sacrificed. The effect on the protein synthesis in the liver was evaluated by determining the liver weight and protein content.

[6] = test system: fatty liver induced by carbon tetrachloride; test: Therapeutic Effect on Fatty Liver Induced by Carbon Tetrachloride; type: in vivo, rats (SD strain); conditions: rats, 50 mg/kg p.o. for 7 days
Procedure: Carbon tetrachloride (1 ml/kg) was subcutaneously administered to rats (SD strain, .male., 38 week-old, n=5) for 4 days. Upon expiration of 3 days from the administration of carbon tetrachloride, Compound 6 was orally given successively for 7 days at the dose of 50 mg/kg. On the 8th day, the animals were sacrificed by exsanguination. The therapeutic effect was evaluated by examining the content of triglyceride in the liver and the concentration of apoprotein B in the plasma.

[7] = BSP 75 mg/kg i.v., retention in plasma after 30 min, read-out: % Prophylaxis BSP
[8] = plasma GPT activity, read-out: % Prophylaxis p-GPT

| SMILES | inhibition in vivo at 50 mg/kg [1, 7] | inhibition in vivo at 50 mg/kg [1, 8] | Liver Damage Index [1] | toxicity (in words) [2] | LD50 at 168 h [3] | further results |
| --- | --- | --- | --- | --- | --- | --- |
| CC(=O)C(C(C)=O)=C1SC=CS1 [Compound 1, 3-(1,3-dithiol-2-ylidene)-2,4-pentanedione] | 80% | 25% | 5.0 |  |  |  |
| CC(C)C1CCC(=O)C(=C2SC=CS2)C1=O (centres unmarked) [Compound 43, 2-(1,3-dithiol-2-ylidene)-4-isopropyl-1,3-cyclohexanedione] | 95% | 67% | 5.6 |  |  |  |
| CC(=O)C(C(=O)c1ccc2ccccc2c1)=C1SC=CS1 [Compound 28, 2-(1,3-dithiol-2-ylidene)-1-(2-naphthyl)-1,3-butanedione] |  |  |  | low toxicity | ≥ 2000 mg/kg |  |
| CC(C)CC(=O)C(C(=O)CC(C)C)=C1SC=CS1 [Compound 4, 5-(1,3-dithiol-2-ylidene)-2,8-dimethyl-4,6-nonanedione] | 108% | 100% | 1.0 | low toxicity | ≥ 2000 mg/kg |  |
| CCC(=O)C(C(C)=O)=C1SC=CS1 [Compound 2, 3-(1,3-dithiol-2-ylidene)-2,4-hexanedione] | 85% | 72% | 1.4 |  |  |  |
| CC(=O)C(C(=O)c1ccc(C)cc1)=C1SC=CS1 [Compound 12, 2-(1,3-dithiol-2-ylidene)-1-(4-methylphenyl)-1,3-butanedione] |  |  |  | low toxicity | ≥ 2000 mg/kg |  |
| CC(C)OC(=O)C(C(=O)OC(C)C)=C1SC=CS1 [Malotilate] |  |  |  |  |  | effectiveness for the treatment of liver damages (in words) [4]: effective for the treatment of liver damages |
| CCCC(=O)C(C(=O)c1ccccc1)=C1SC=CS1 [Compound 7, 2-(1,3-dithiol-2-ylidene)-1-phenyl-1,3-hexanedione] |  |  |  | low toxicity | ≥ 2000 mg/kg |  |
| CC(C)CC(=O)C(C(=O)c1ccccc1)=C1SC=CS1 [Compound 8, 2-(1,3-dithiol-2-ylidene)-5-methyl-1-phenyl-1,3-hexanedione] |  |  |  | low toxicity | ≥ 2000 mg/kg |  |
| O=C1CCCC(=O)C1=C1SC=CS1 [Compound 41, 2-(1,3-dithiol-2-ylidene)-1,3-cyclohexanedione] | 66% | 29% | 6.0 |  |  |  |
| CC(=O)C(C(=O)c1ccc(O)cc1)=C1SC=CS1 [Compound 45, 2-(1,3-dithiol-2-ylidene)-1-(4-hydroxyphenyl)-1,3-butanedione] |  |  |  | low toxicity | ≥ 2000 mg/kg |  |
| CC(=O)C(C(=O)c1cccc2ccccc12)=C1SC=CS1 [Compound 27, 2-(1,3-dithiol-2-ylidene)-1-(1-naphthyl)-1,3-butanedione] |  |  |  | low toxicity | ≥ 2000 mg/kg |  |
| CCCCCCCCCCCCCCCC(=O)C(C(=O)c1ccccc1)=C1SC=CS1 [Compound 10, 2-(1,3-dithiol-2-ylidene)-1-phenyl-1,3-octadecanedione] | 78% | 42% | 2.0 |  |  |  |
| CC(=O)C(C(=O)C1CCCCC1)=C1SC=CS1 [Compound 5, 2-(1,3-dithiol-2-ylidene)-1-cyclohexyl-1,3-butanedione] | 96% | 89% | 2.8 | low toxicity | ≥ 2000 mg/kg |  |
| CC(=O)C(C(=O)c1ccccc1)=C1SC=CS1 [Compound 6, 2-(1,3-dithiol-2-ylidene)-1-phenyl-1,3-butanedione] |  |  |  | low toxicity | ≥ 2000 mg/kg | effect for stimulating the protein metabolic function of the liver (in words) [5]: substantial effect for stimulating the protein metabolic function of the liver; effect for curing the fatty liver (in words) [6]: significant effect for curing the fatty liver |
| CC1(C)CC(=O)C(=C2SC=CS2)C(=O)C1 [Compound 44, 2-(1,3-dithiol-2-ylidene)-5,5-dimethyl-1,3-cyclohexanedione] | 111% | 95% | 1.2 |  |  |  |
| CC1CCC(=O)C(=C2SC=CS2)C1=O (centres unmarked) [Compound 42, 2-(1,3-dithiol-2-ylidene)-4-methyl-1,3-cyclohexanedione] | 60% | 29% | 6.0 |  |  |  |
| CCOCC(=O)C(C(C)=O)=C1SC=CS1 [Compound 3, 3-(1,3-dithiol-2-ylidene)-1-ethoxy-2,4-pentanedione] | 102% | 97% | 2.2 |  |  |  |
| COc1ccc(C(=O)C(C(C)=O)=C2SC=CS2)cc1 [Compound 17, 2-(1,3-dithiol-2-ylidene)-1-(4-methoxyphenyl)-1,3-butanedione] |  |  |  | low toxicity | ≥ 2000 mg/kg |  |
